ChEMBL document CHEMBL4000195, “Design and synthesis of novel 7-aminosubstituted pyrido[2,3-b]pyrazines exhibiting anti-breast cancer activity” (Eur J Med Chem, 2017)
Calls of active or inactive are those of the source. The rule behind the calls is not given here.

How the values were obtained:
[1] = biological target: Glycogen synthase kinase-3 (Sus scrofa) (UniProt B2LUN4+I6LNT8); assay: Inhibition of pig GSK3alpha/beta using GS-1 as substrate in presence of [gamma33P]ATP after 30 mins by scintillation counting method
T47D = assay: Cytotoxicity against human T47D cells at 5 uM by MTT assay; type: functional
[2] = Tmax in NOD/SCID mouse at 40 mg/kg, ip administered as single dose by LC-MS/MS method; type: ADME, organism-based; details: in vivo
Mus musculus [3] = assay: In vivo inhibition of ERK1/2 phosphorylation at Thr202/Tyr204 residue in NOD/SCID mouse tumor xenografted with HER2-amplified human HCC1954 cells at 10 mg/kg, ip administered once daily for 18 days measured after 1 hr last dose; type: functional, organism-based
HCC1954 [4] = assay: Cytotoxicity against human HCC1954 cells at 10 uM by MTT assay; type: functional
[5] = Cmax in NOD/SCID mouse at 10 mg/kg, ip administered twice by LC-MS/MS method; type: ADME, organism-based; set-up: dose 10 mg/kg, route intraperitoneal; details: in vivo
MDA-MB-231 [6] = assay: Cytotoxicity against human MDA-MB-231 cells at 5 uM by MTT assay; type: functional
[7] = AUC (0 to 8 hrs) in NOD/SCID mouse at 0.5 mg/kg, po administered as single dose by LC-MS/MS method; type: ADME, organism-based; set-up: time < 8 hr, dose 0.5 mg/kg, route oral; details: in vivo
Mus musculus [8] = assay: Toxicity in NOD/SCID mouse assessed as phenotypic changes at 10 mg/kg, ip administered once daily for 18 days measured after 1 hr last dose; type: organism-based; details: in vivo
Mus musculus [9] = assay: In vivo inhibition of SRC phosphorylation in NOD/SCID mouse tumor xenografted with HER2-amplified human HCC1954 cells at 10 mg/kg, ip administered once daily for 18 days measured after 1 hr last dose; type: functional, organism-based
[10] = Cmax in NOD/SCID mouse at 0.5 mg/kg, ip administered as single dose by LC-MS/MS method; type: ADME, organism-based; set-up: dose 0.5 mg/kg, route intraperitoneal; details: in vivo
[11] = biological target: Tyrosine-protein kinase BTK (Homo sapiens) (UniProt Q06187); assay: Inhibition of human wild type full length BTK (M1 to S659 residues) expressed in mammalian expression system at 10 uM by KinomeScan method relative to control
[12] = Cmax in NOD/SCID mouse at 40 mg/kg, ip administered as single dose by LC-MS/MS method; type: ADME, organism-based; set-up: dose 40 mg/kg, route intraperitoneal; details: in vivo
HCC1954 [13] = assay: Anti-tumor activity against HER2-amplified human HCC1954 cells xenografted in NOD/SCID mouse assessed as tumor size at 10 mg/kg, ip administered once daily for 18 days measured after 1 hr last dose (reference value: 497 +/- 82 mm3); type: functional
[14] = biological target: Phosphatidylinositol 4,5-bisphosphate 3-kinase catalytic subunit alpha isoform (Homo sapiens, UniProt P42336); assay: Inhibition of PI3Kalpha catalytic domain (unknown origin) at 10 uM using PIP2 liposomes as substrate in presence of biotin-labeled PIP3 and GST-GRP1-PH by streptavidin-HRP based assays
[15] = biological target: Tyrosine-protein kinase JAK3 (Homo sapiens) (UniProt P52333); assay: Inhibition of human wild type partial length JAK3 (I781 to S1124 residues) expressed in mammalian expression system at 10 uM by KinomeScan method relative to control
[16] = biological target: RAC-alpha serine/threonine-protein kinase (Homo sapiens) (UniProt P31749); assay: Inhibition of human wild type partial length AKT1 expressed in bacterial expression system at 10 uM by KinomeScan method relative to control
Mus musculus [17] = assay: Toxicity in NOD/SCID mouse assessed as phenotypic changes at 0.5 mg/kg, po administered as single dose; type: organism-based; details: in vivo
[18] = biological target: Cyclin-dependent kinase 5/CDK5 activator 1 (Homo sapiens) (UniProt Q00535+Q15078); assay: Inhibition of human CDK5/p25 using histone H1 as substrate in presence of [gamma33P]ATP after 30 mins by scintillation counting method; type: protein-complex assay
MDA-MB-231 [19] = assay: Cytotoxicity against human MDA-MB-231 cells by MTT assay; type: functional, cell-based
Mus musculus [20] = assay: In vivo inhibition of ERK1/2 phosphorylation at Thr202/Tyr204 residue in NOD/SCID mouse tumor xenografted with HER2-amplified human HCC1954 cells at 10 mg/kg, ip administered once daily for 18 days measured after 1 hr last dose by […]; type: functional, organism-based
[21] = biological target: Receptor-type tyrosine-protein kinase FLT3 (Homo sapiens) (UniProt P36888); assay: Inhibition of recombinant human GST-tagged FLT3 (571 to 993 residues) transphosphorylation activity expressed in baculovirus infected Sf9 cells using poly[Glu:Tyr] (4:1) as substrate after 60 mins
[22] = AUC (0 to 8 hrs) in NOD/SCID mouse at 40 mg/kg, ip administered as single dose by LC-MS/MS method; type: ADME, organism-based; set-up: time < 8 hr, dose 40 mg/kg, route intraperitoneal; details: in vivo
HCC1954 [23] = assay: Anti-tumor activity against HER2-amplified human HCC1954 cells xenografted in NOD/SCID mouse assessed as proliferation index at 10 mg/kg, ip administered once daily for 18 days measured after 1 hr last dose by Ki-67/hematoxylin and eosin staining based microscopic analysis (reference value: 78.4 +/- 14.8%); type: functional
[24] = biological target: Dual specificity protein kinase CLK1 (Mus musculus) (UniProt P22518); assay: Inhibition of mouse CLK1
[25] = biological target: Hepatocyte growth factor receptor (Homo sapiens) (UniProt P08581); assay: Inhibition of human wild type partial length MET (D1010 to S1367 residues) expressed in bacterial expression system at 10 uM by KinomeScan method relative to control
Mus musculus [26] = assay: In vivo inhibition of SRC phosphorylation at Tyr-416 residue in NOD/SCID mouse tumor xenografted with HER2-amplified human HCC1954 cells at 10 mg/kg, ip administered once daily for 18 days measured after 1 hr last dose by […]; type: functional, organism-based
[27] = Cmax in NOD/SCID mouse at 0.5 mg/kg, po administered as single dose by LC-MS/MS method; type: ADME, organism-based; set-up: dose 0.5 mg/kg, route oral; details: in vivo
MCF7 = assay: Cytotoxicity against human MCF7 cells at 10 uM by MTT assay; type: functional
HCC1954 [28] = assay: Cytotoxicity against human HCC1954 cells at 5 uM by MTT assay; type: functional
[29] = biological target: Receptor-interacting serine/threonine-protein kinase 3 (Homo sapiens) (UniProt Q9Y572); assay: Inhibition of human RIPK3
SK-BR-3 = assay: Cytotoxicity against human SKBR3 cells by MTT assay; type: functional, cell-based
[30] = biological target: Insulin-like growth factor 1 receptor (Homo sapiens) (UniProt P08069); assay: Inhibition of human wild type partial length IGF1R (L972 to D1294 residues) expressed in bacterial expression system at 10 uM by KinomeScan method relative to control
[31] = Tmax in NOD/SCID mouse at 10 mg/kg, ip administered twice by LC-MS/MS method; type: ADME, organism-based; details: in vivo
Mus musculus [32] = assay: Toxicity in NOD/SCID mouse assessed as phenotypic changes at 0.5 mg/kg, ip administered as single dose; type: organism-based; details: in vivo
[33] = biological target: Vascular endothelial growth factor receptor 2 (Homo sapiens) (UniProt P35968); assay: Inhibition of human wild type partial length VEGFR2 (R787 to P1253 residues) expressed in mammalian expression system at 10 uM by KinomeScan method relative to control
HCC1954 [34] = assay: Cytotoxicity against human HCC1954 cells by MTT assay; type: functional, cell-based

Chain of Dual specificity protein kinase CLK1 (Mus musculus) (P22518 whole entry, looked up, the tested form may be a part): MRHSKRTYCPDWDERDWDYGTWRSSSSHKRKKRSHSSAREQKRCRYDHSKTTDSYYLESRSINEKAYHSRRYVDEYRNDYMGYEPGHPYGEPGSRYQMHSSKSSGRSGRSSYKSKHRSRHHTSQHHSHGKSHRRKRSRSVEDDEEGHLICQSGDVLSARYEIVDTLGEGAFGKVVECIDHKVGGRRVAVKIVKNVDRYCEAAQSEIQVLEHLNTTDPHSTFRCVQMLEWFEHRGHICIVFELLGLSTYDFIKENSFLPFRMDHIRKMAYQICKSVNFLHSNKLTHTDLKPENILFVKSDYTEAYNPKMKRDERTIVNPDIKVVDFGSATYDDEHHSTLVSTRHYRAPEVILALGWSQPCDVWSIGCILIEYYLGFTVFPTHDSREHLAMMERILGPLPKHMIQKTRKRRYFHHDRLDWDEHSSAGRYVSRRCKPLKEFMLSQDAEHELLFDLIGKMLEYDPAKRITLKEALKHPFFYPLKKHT
Chain of Tyrosine-protein kinase JAK3 (Homo sapiens) (P52333 whole entry, the tested form may be a part): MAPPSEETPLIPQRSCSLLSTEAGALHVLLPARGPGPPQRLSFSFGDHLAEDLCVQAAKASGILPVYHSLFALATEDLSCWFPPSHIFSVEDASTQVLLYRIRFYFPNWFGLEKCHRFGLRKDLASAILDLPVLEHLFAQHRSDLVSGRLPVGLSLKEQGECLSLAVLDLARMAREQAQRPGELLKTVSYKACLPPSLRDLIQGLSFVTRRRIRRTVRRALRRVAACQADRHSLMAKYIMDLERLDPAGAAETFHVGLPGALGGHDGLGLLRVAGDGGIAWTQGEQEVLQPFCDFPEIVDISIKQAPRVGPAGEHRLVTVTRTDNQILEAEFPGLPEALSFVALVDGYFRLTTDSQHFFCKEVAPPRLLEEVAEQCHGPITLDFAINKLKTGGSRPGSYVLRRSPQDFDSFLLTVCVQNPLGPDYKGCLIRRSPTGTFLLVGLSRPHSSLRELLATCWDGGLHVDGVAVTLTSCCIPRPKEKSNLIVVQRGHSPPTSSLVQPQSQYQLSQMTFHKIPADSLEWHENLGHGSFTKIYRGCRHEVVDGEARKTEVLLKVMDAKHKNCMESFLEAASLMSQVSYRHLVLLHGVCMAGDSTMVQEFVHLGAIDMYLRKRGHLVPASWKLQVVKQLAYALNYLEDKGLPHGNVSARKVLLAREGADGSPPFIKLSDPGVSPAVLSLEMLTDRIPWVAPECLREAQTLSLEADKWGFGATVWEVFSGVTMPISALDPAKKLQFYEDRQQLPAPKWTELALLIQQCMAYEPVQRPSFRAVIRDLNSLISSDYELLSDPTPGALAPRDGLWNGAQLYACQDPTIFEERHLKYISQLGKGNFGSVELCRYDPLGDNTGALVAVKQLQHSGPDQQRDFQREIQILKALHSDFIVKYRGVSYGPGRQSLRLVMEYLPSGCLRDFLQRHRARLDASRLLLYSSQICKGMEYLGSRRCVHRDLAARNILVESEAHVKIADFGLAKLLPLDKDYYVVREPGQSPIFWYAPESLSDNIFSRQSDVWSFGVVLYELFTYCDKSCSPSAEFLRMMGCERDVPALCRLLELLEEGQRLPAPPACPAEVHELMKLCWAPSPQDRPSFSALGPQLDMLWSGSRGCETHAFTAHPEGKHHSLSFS
Chain of Phosphatidylinositol 4,5-bisphosphate 3-kinase catalytic subunit alpha isoform (P42336 whole entry, the tested form may be a part, canonical isoform): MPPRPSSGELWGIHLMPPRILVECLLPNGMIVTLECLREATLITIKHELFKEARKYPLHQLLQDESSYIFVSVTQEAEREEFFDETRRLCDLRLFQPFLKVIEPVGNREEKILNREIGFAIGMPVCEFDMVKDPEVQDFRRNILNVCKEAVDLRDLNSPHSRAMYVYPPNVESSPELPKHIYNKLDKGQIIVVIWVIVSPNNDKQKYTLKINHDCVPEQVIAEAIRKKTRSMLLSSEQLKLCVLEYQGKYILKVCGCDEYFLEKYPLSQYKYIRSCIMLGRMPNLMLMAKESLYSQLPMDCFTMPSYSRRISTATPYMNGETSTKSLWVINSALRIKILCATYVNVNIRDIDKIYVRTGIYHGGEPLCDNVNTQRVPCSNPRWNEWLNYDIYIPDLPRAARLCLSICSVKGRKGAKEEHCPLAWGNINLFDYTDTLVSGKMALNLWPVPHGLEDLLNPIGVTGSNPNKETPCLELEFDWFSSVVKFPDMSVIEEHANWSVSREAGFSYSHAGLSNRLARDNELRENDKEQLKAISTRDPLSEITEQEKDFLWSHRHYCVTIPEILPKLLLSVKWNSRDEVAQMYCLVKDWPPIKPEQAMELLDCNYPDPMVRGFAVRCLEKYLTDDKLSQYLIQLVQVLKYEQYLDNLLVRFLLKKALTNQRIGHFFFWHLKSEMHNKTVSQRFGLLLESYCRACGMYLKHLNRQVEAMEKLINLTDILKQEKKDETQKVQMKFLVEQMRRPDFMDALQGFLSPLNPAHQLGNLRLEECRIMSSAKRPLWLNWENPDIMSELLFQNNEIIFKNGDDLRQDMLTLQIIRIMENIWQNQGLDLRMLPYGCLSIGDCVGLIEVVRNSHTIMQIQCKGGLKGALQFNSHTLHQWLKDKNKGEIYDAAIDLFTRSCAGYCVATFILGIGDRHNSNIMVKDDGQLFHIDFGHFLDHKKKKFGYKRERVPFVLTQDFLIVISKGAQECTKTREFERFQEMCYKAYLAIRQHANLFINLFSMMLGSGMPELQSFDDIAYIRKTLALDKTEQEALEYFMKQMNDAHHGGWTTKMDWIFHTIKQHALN
Chain of Receptor-interacting serine/threonine-protein kinase 3 (Homo sapiens) (Q9Y572 whole entry, looked up): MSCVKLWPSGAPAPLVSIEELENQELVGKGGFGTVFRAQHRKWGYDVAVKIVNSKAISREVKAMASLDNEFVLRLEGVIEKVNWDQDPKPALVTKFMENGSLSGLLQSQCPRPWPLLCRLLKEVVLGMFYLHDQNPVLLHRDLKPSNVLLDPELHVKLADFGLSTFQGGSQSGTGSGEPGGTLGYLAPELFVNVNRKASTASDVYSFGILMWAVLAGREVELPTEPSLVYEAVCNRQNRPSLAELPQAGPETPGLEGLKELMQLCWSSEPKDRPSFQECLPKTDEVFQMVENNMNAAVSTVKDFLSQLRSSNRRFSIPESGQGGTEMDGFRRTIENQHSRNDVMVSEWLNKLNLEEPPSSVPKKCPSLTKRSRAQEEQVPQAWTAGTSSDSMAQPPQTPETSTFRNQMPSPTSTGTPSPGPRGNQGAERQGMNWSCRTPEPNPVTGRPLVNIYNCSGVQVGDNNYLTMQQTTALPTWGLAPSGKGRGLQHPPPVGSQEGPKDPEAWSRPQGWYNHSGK
Chain of RAC-alpha serine/threonine-protein kinase (Homo sapiens) (P31749 whole entry): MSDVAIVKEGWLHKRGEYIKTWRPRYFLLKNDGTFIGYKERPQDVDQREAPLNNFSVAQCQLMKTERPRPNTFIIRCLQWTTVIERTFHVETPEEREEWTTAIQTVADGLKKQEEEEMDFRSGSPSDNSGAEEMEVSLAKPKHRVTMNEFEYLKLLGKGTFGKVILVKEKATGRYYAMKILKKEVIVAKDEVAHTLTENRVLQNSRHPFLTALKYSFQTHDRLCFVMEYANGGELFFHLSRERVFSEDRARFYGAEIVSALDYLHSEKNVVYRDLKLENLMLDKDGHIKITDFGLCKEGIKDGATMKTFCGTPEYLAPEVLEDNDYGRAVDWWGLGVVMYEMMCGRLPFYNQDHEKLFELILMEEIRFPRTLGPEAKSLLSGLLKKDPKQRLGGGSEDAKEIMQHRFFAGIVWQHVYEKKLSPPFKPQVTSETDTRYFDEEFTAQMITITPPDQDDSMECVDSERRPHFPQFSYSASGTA
Chain of Cyclin-dependent kinase 5/CDK5 activator 1 (Homo sapiens) (Q00535 whole entry): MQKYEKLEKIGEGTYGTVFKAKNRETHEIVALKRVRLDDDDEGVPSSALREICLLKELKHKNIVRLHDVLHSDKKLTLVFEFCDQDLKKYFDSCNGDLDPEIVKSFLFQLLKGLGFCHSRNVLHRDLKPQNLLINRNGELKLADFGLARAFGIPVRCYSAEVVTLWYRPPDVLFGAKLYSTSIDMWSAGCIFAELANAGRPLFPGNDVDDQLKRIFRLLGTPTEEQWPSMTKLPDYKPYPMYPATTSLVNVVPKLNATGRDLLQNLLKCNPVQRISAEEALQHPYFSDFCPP
Chain of Cyclin-dependent kinase 5/CDK5 activator 1 (Homo sapiens) (Q15078 99-307 partner limits assumed): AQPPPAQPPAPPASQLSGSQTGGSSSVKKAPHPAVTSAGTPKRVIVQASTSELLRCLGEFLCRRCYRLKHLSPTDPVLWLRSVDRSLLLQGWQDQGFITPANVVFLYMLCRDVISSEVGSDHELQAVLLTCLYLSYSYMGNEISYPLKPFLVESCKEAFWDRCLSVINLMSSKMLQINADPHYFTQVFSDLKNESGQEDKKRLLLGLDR
Chain of Tyrosine-protein kinase BTK (Homo sapiens) (Q06187 whole entry, the tested form may be a part): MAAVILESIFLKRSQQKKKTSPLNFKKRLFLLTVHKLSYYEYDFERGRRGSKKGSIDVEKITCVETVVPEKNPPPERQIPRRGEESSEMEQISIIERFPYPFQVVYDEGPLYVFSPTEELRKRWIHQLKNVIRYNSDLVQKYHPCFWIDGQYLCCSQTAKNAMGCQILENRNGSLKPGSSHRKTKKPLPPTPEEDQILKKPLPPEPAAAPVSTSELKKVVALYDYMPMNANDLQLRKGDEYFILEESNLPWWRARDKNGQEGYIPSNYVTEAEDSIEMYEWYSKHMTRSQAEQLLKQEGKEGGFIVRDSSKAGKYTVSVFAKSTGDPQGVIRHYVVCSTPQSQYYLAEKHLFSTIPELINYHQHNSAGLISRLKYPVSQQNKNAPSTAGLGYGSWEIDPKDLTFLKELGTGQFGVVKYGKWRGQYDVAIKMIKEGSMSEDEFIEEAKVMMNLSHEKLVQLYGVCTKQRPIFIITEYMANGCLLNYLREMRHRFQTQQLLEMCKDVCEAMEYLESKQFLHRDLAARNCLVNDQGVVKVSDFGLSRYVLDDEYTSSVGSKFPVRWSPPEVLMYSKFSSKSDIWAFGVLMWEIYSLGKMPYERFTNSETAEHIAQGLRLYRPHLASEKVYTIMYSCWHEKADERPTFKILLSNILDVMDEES

SMILES: Cc1nc2nc(Sc3ccccc3)cnc2cc1NC(=O)Nc1ccccc1
- inhibition [1]: inactive
- Activity (T47D): >50%
- Tmax [2]: 2 h
- inhibition (Mus musculus [3]): Active
- Activity (HCC1954 [4]): >50%
- Cmax [5]: 6.45 µM
- Activity (MDA-MB-231 [6]): >50%
- AUC(0-t) at 8 h [7]: 1.53 µM·h
- Activity (Mus musculus [8]): Non-Toxic
- inhibition (Mus musculus [9]): Active
- Cmax [10]: 0.82 µM
- inhibition [11]: 10%
- Cmax [12]: 18.7 µM
- Activity (HCC1954 [13]): 150 mm3
- inhibition [14]: Active
- inhibition [15]: 0%
- inhibition [16]: 3%
- Activity (Mus musculus [17]): Non-Toxic
- inhibition [18]: inactive
- IC50 (MDA-MB-231 [19]): 6100 nM
- inhibition (Mus musculus [20]): Active
- inhibition [21]: inactive
- AUC(0-t) at 8 h [22]: 131 µM·h
- Activity_index (HCC1954 [23]): 25.7%
- inhibition [24]: inactive
- inhibition [25]: 40%
- inhibition (Mus musculus [26]): Active
- Cmax [27]: 0.47 µM
- Activity (MCF7): >50%
- Activity (HCC1954 [28]): >50%
- inhibition [29]: inactive
- IC50 (SK-BR-3): 1800 nM
- inhibition [30]: 6%
- Tmax [31]: 2 h
- Activity (Mus musculus [32]): Non-Toxic
- inhibition [33]: 1%
- IC50 (HCC1954 [34]): 1500 nM
